From patent US11179397B2, “Imidazopyrimidine derivatives” (Gilead Sciences, Inc., priority 2018, dated 2021)

Key:
[1] = molecular target: SHP-2 full length protein (Homo sapiens (Human), UniProt Q06124); test: SHP-2 biochemical DiFMUP pseudosubstrate-fluorogenic assay; conditions: 0.2 nM SHP-2, 1 μM IRS-1 activator peptide, 50 μM DiFMUP; read-out: SHP2 IC50
Procedure, shortened: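 In-house recombinant full-length SHP-2 preincubated 90 min at room temperature with compounds (1:3 series, 10,000–0.005 nM), then DiFMUP substrate added at 50 μM final for 30 min more. Fluorescence normalised to DMSO wells (100%) and IC50 derived by curve fitting.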

NCI-H358 cells = test: NCI-H358 3D tumor spheroid growth inhibition; format: cell-based; conditions: Homo sapiens, NCI-H358, 168 h, 3D spheroids, 7 days, 3D CellTiter Glo; cellular IC50 designated EC50; read-out: H358 EC50
Procedure, shortened: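 Cells seeded at 1000/well in ultra-low-attachment plates at 37 °C, 5% CO2 to form spheroids, then incubated a further 7 days with compounds. Viability by 3D CellTiter Glo luminescence; % inhibition versus DMSO wells, with normalized cellular IC50 reported as EC50.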

Chain of SHP-2 full length protein (Q06124 whole entry): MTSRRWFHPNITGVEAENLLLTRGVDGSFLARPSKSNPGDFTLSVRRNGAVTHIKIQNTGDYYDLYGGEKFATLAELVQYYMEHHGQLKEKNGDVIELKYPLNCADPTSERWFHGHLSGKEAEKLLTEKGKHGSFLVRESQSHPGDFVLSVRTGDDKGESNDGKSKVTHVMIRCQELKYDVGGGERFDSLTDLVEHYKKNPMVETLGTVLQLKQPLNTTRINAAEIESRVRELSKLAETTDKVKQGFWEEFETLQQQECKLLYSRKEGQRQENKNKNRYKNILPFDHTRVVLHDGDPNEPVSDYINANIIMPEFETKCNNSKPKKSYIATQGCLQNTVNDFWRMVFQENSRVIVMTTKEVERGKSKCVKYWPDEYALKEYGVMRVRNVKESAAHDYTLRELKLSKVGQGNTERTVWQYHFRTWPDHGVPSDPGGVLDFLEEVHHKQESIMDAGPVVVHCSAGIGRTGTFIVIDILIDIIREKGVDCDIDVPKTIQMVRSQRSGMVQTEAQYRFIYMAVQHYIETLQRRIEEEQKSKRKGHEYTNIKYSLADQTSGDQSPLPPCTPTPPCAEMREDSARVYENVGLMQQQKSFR

| Structure (SMILES) | IC50 [1] | EC50 (NCI-H358 cells) |
| --- | --- | --- |
| N[C@@H]1c2ccccc2CC12CCN(c1ncc(Sc3ccnc4sccc34)c3nccn13)CC2 [Example 138, (S)-1′-(8-(thieno[2,3-b]pyridin-4-ylthio)imidazo[1,2-c]pyrimidin-5-yl)-1,3-dihydrospiro[indene-2,4′-piperidin]-1-amine] | 2.2 nM | 11 nM |
| N[C@@H]1c2ccccc2CC12CCN(c1ncc(Sc3ccnc4ccsc34)c3nccn13)CC2 [Example 139, (S)-1′-(8-(thieno[3,2-b]pyridin-7-ylthio)imidazo[1,2-c]pyrimidin-5-yl)-1,3-dihydrospiro[indene-2,4′-piperidin]-1-amine] | 1.7 nM | 8.9 nM |
| N[C@@H]1c2ccccc2CC12CCN(c1ncc(Sc3cccc4cnsc34)c3nccn13)CC2 [Example 140, (S)-1′-(8-(benzo[d]isothiazol-7-ylthio)imidazo[1,2-c]pyrimidin-5-yl)-1,3-dihydrospiro[indene-2,4′-piperidin]-1-amine] | 2.6 nM | 18 nM |
| CSc1ccccc1Sc1cnc(N2CCC3(CC2)Cc2ccccc2[C@H]3N)n2ccnc12 [Example 141, (S)-1′-(8-((2-(methylthio)phenyl)thio)imidazo[1,2-c]pyrimidin-5-yl)-1,3-dihydrospiro[indene-2,4′-piperidin]-1-amine] | 1.8 nM | 30 nM |
| CCSc1ccccc1Sc1cnc(N2CCC3(CC2)Cc2ccccc2[C@H]3N)n2ccnc12 [Example 142, (S)-1′-(8-((2-(ethylthio)phenyl)thio)imidazo[1,2-c]pyrimidin-5-yl)-1,3-dihydrospiro[indene-2,4′-piperidin]-1-amine] | 4 nM | 60 nM |
| CC(C)Sc1ccccc1Sc1cnc(N2CCC3(CC2)Cc2ccccc2[C@H]3N)n2ccnc12 [Example 143, (S)-1′-(8-((2-(isopropylthio)phenyl)thio)imidazo[1,2-c]pyrimidin-5-yl)-1,3-dihydrospiro[indene-2,4′-piperidin]-1-amine] | 11 nM | 260 nM |
| N[C@@H]1c2ccccc2CC12CCN(c1ncc(Sc3ccnc4cccnc34)c3nccn13)CC2 [Example 144, (S)-1′-(8-((1,5-naphthyridin-4-yl)thio)imidazo[1,2-c]pyrimidin-5-yl)-1,3-dihydrospiro[indene-2,4′-piperidin]-1-amine] | 3.6 nM | 4.4 nM |
| N[C@@H]1c2ccccc2CC12CCN(c1ncc(Sc3ccnc4ccccc34)c3nccn13)CC2 [Example 145] | 2.8 nM | 20 nM |
| N[C@@H]1c2cccnc2CC12CCN(c1ncc(Sc3cccc(Cl)c3Cl)c3nccn13)CC2 [Example 146, (S)-1′-(8-((2,3-dichlorophenyl)thio)imidazo[1,2-c]pyrimidin-5-yl)-5,7-dihydrospiro[cyclopenta[b]pyridine-6,4′-piperidin]-5-amine] | 1.7 nM | 15 nM |
| Nc1nccc(Sc2cnc(N3CCC4(CC3)Cc3ncccc3[C@H]4N)n3ccnc23)c1Cl [Example 147, (S)-1′-(8-((2-amino-3-chloropyridin-4-yl)thio)imidazo[1,2-c]pyrimidin-5-yl)-5,7-dihydrospiro[cyclopenta[b]pyridine-6,4′-piperidin]-5-amine] | 4.8 nM | 5.5 nM |
| N[C@H]1c2cccnc2CC12CCN(c1ncc(Sc3cccc(Cl)c3Cl)c3nccn13)CC2 [Example 148, (R)-1′-(8-((2,3-dichlorophenyl)thio)imidazo[1,2-c]pyrimidin-5-yl)-5,7-dihydrospiro[cyclopenta[b]pyridine-6,4′-piperidin]-5-amine] | 41 nM | 132 nM |
| Nc1nccc(Sc2cnc(N3CCC4(CC3)Cc3ncccc3[C@@H]4N)n3ccnc23)c1Cl [Example 149, (R)-1′-(8-((2-amino-3-chloropyridin-4-yl)thio)imidazo[1,2-c]pyrimidin-5-yl)-5,7-dihydrospiro[cyclopenta[b]pyridine-6,4′-piperidin]-5-amine] | 75 nM | 101 nM |
